Test [1] has as its system Phytophthora infestans—PHYTIN. Briefly: whole plant or invertebrate. Format: in vivo. The following applies: Phytophthora, in Solanum lycopersicum, 24 h, read-out: PHYTIN in vivo 1 Day Protectant.
The subject of test [2] is Magnaporthe grisea (Pyricularia oryzae—PYRIOR). Kind of test: microbe, parasite or virus in culture. It is filed as cell-based. The settings on record: for inhibition at 25 ppm: Pyricularia oryzae, read-out: PYRIOR in vitro Growth Inhibition.
In test [3] the test system is Stagonospora nodorum (Leptosphaeria nodorum—LEPTNO). Briefly: In vitro fungal growth inhibition, Stagonospora nodorum (LEPTNO). The settings on record: for inhibition at 25 ppm: Leptosphaeria, 25 ppm in growth medium, read-out: LEPTNO in vitro Growth Inhibition. It is filed as cell-based.
For the next test, the system named is Erysiphe graminis—ERYSGT. Kind of test: Powdery Mildew of Wheat, in vivo whole plant, 24 Hour Protectant. The following applies: for pest or weed control at 100 ppm: Erysiphe, 100 ppm spray, 24 hour protectant, wheat, read-out: ERYSGT in vivo 1 Day Protectant.
For test [4], the system named is Phytophthora infestans (PHYTIN). Kind of test: microbe, parasite or virus in culture. It is filed as cell-based. The settings on record: for inhibition at 25 ppm: Phytophthora infestans, read-out: PHYTIN in vitro Growth Inhibition.
In another test the test system is Ustilago maydis (USTIMA). Kind of test: microbe, parasite or virus in culture. It is filed as cell-based. The following applies: for inhibition at 25 ppm: Mycosarcoma maydis, read-out: USTIMA in vitro Growth Inhibition.
Test [5] relates to Puccinia recondita—PUCCRT. Kind of test: Brown Rust of Wheat, in vivo whole plant, 24 Hour Protectant. The following applies: Puccinia; 100 ppm spray, 24 hour protectant, wheat; control of fungal infection vs untreated plants; read-out: PUCCRT in vivo 1 Day Protectant.
In test [6] the test system is Leptosphaeria nodorum—LEPTNO. Briefly: Glume Blotch of Wheat, in vivo whole plant, 24 Hour Protectant. The following applies: Leptosphaeria; 100 ppm spray, 24 hour protectant, wheat; control of fungal infection vs untreated plants; read-out: LEPTNO in vivo 1 Day Protectant.
For test [7], the system named is Rhizoctonia solani (RHIZSO). Briefly: microbe, parasite or virus in culture. It is filed as cell-based. The following applies: for inhibition at 25 ppm: Rhizoctonia solani, read-out: RHIZSO in vitro Growth Inhibition.
For test [8], the system named is Mycosphaerella graminicola (Septoria tritici—SEPTTR). Briefly: In vitro fungal growth inhibition, Mycosphaerella graminicola (SEPTTR). The following applies: for inhibition at 25 ppm: Zymoseptoria tritici, 25 ppm in growth medium, read-out: SEPTTR in vitro Growth Inhibition. Format: cell-based.
[9] abbreviates: control of fungal infection vs untreated plants.

As a reminder, the inhibition is the percentage by which the read-out fell short of the control.

Where two headings read alike, the source gives them in different places.

Regarding `COc1ccnc(C(=O)NCC(C)(C)Sc2ncc(C(F)(F)F)cc2Cl)c1O` [Compound 244], the pest or weed control at 100 ppm in test [1] was less than 25%; in the test on Erysiphe graminis—ERYSGT (setting [9]) it was less than 25%; in test [5] it was less than 25%; in test [6], 25 to 74%. The inhibition at 25 ppm in [2] is more than 80%; in test [3] it was more than 80%; in [4] it was less than 80%; in the test on Ustilago maydis (USTIMA), less than 80%; in [7] it was less than 80%; in test [8], more than 80%.
As for `COc1ccnc(C(=O)NC2CCC[C@H]3CC(CCC=C(C)C)=CC[C@@H]23)c1O` (stereo partly shown) [Compound 286], the pest or weed control at 100 ppm in test [1] was less than 25%; in the test with Erysiphe graminis—ERYSGT (setting [9]), less than 25%; in [5], less than 25%; in [6], 25 to 74%. Besides, the inhibition at 25 ppm in [2] was less than 80%; in test [3] it was more than 80%; in test [4] it was less than 80%; in the test on Ustilago maydis (USTIMA), less than 80%; in [7], more than 80%; in [8] it was less than 80%.
As for `COc1ccnc(C(=O)NC2CCC[C@H]3[C@H]4CC[C@H](C4)[C@@H]23)c1O` (stereo partly shown) [Compound 291], the pest or weed control at 100 ppm in [1] was less than 25%; in the test with Erysiphe graminis—ERYSGT (setting [9]) it was less than 25%; in test [5], less than 25%; in test [6], 25 to 74%. In addition, the inhibition at 25 ppm in [2] was less than 80%; in test [3] it was more than 80%; in test [4], less than 80%; in the test on Ustilago maydis (USTIMA), less than 80%; in test [7] it was more than 80%; in test [8], less than 80%.
Turning to `COc1ccnc(C(=O)N[C@H]2COC(=O)[C@H](Cc3ccccc3)[C@@H](OC(=O)C(C)C)[C@H](C)OC2=O)c1OC(=O)c1ccccc1Br` [Compound 647], the inhibition at 25 ppm in test [2] was less than 80%; in test [3], more than 80%; in test [4] it was less than 80%; with Ustilago maydis (USTIMA), less than 80%; in test [7], less than 80%; in [8] it was less than 80%.
Take `COc1ccnc(C(=O)N[C@H]2COC(=O)[C@H](Cc3ccccc3)[C@@H](OC(=O)C(C)C)[C@H](C)OC2=O)c1OC(=O)C(Cl)c1ccccc1` (stereo partly shown) [Compound 649]: the inhibition at 25 ppm in [2] is more than 80%; in test [3] it was more than 80%; in test [4], less than 80%; with Ustilago maydis (USTIMA), less than 80%; in [7], less than 80%; in test [8] it was less than 80%.
Consider `COc1ccnc(C(=O)N[C@H]2COC(=O)[C@H](Cc3ccccc3)[C@@H](OC(=O)C(C)C)[C@H](C)OC2=O)c1OC(=O)/C=C/c1ccccc1` [Compound 651], for which the inhibition at 25 ppm in [2] was less than 80%; in [3], more than 80%; in test [4] it was less than 80%; in the test with Ustilago maydis (USTIMA), less than 80%; in test [7], less than 80%; in [8], less than 80%.
`COc1ccnc(C(=O)N[C@H]2COC(=O)[C@H](Cc3ccccc3)[C@@H](OC(=O)C(C)C)[C@H](C)OC2=O)c1OC(=O)c1ccc(Cl)nc1` [Compound 669]: the pest or weed control at 100 ppm (in test [1]; in the test with Erysiphe graminis—ERYSGT (% control of fungal infection vs untreated plants)) was less than 25% in each case. The inhibition at 25 ppm was less than 80% in test [2]; more than 80% in test [3]; less than 80% in [4]; less than 80% in the test on Ustilago maydis (USTIMA); less than 80% in test [7]; less than 80% in [8].
`COc1ccnc(C(=O)N[C@H]2COC(=O)[C@H](Cc3ccccc3)[C@@H](OC(=O)C(C)C)[C@H](C)OC2=O)c1OC(=O)c1cc(Cl)cnc1Cl` [Compound 671]: the inhibition at 25 ppm in test [2] is less than 80%; in [3], more than 80%; in test [4] it was less than 80%; in the test on Ustilago maydis (USTIMA), less than 80%; in [7] it was less than 80%; in test [8], less than 80%.
With `COc1ccnc(C(=O)N[C@H]2COC(=O)[C@H](Cc3ccccc3)[C@@H](OC(=O)C(C)C)[C@H](C)OC2=O)c1OC(=O)c1ccnc(Cl)c1` [Compound 672], the inhibition at 25 ppm in test [2] is less than 80%; in [3], more than 80%; in test [4], less than 80%; in the test on Ustilago maydis (USTIMA) it was less than 80%; in [7] it was less than 80%; in test [8], less than 80%.
In the case of `COc1ccnc(C(=O)N[C@H]2COC(=O)[C@H](Cc3ccccc3)[C@@H](OC(=O)C(C)C)[C@H](C)OC2=O)c1OC(=O)Cc1cccs1` [Compound 675], the inhibition at 25 ppm in [2] is more than 80%; in test [3], more than 80%; in test [4], less than 80%; in the test with Ustilago maydis (USTIMA) it was less than 80%; in test [7], less than 80%; in [8] it was less than 80%.
`COc1ccnc(C(=O)N[C@H]2COC(=O)[C@H](Cc3ccccc3)[C@@H](OC(=O)C(C)C)[C@H](C)OC2=O)c1OC(=O)c1snnc1C` [Compound 676]: the inhibition at 25 ppm in [2] is less than 80%; in test [3], more than 80%; in test [4], less than 80%; with Ustilago maydis (USTIMA) it was less than 80%; in test [7] it was less than 80%; in test [8] it was less than 80%.
With `COc1ccnc(C(=O)N[C@H]2COC(=O)[C@H](Cc3ccccc3)[C@@H](OC(=O)C(C)C)[C@H](C)OC2=O)c1OC(=O)c1c(-c2c(Cl)cccc2Cl)noc1C` [Compound 677], the inhibition at 25 ppm in test [2] was less than 80%; in test [3], more than 80%; in test [4] it was less than 80%; in the test on Ustilago maydis (USTIMA), less than 80%; in test [7], less than 80%; in [8], less than 80%.
Turning to `C=CCOC(=O)Oc1c(OC)ccnc1C(=O)N[C@H]1COC(=O)[C@H](Cc2ccccc2)[C@@H](OC(=O)C(C)C)[C@H](C)OC1=O` [Compound 681], the inhibition at 25 ppm in [2] is more than 80%; in [3] it was more than 80%; in test [4] it was less than 80%; in the test on Ustilago maydis (USTIMA) it was less than 80%; in test [7] it was more than 80%; in [8], less than 80%.
As for `COc1ccnc(C(=O)N[C@H]2COC(=O)[C@H](Cc3ccccc3)[C@@H](OC(=O)C(C)C)[C@H](C)OC2=O)c1OC(=O)Oc1ccccc1` [Compound 697], the inhibition at 25 ppm in test [2] is less than 80%; in test [3] it was more than 80%; in test [4] it was less than 80%; in the test on Ustilago maydis (USTIMA), less than 80%; in test [7], less than 80%; in [8], less than 80%.
As to `CCCSC(=O)Oc1c(OC)ccnc1C(=O)N[C@H]1COC(=O)[C@H](Cc2ccccc2)[C@@H](OC(=O)C(C)C)[C@H](C)OC1=O` [Compound 699], the inhibition at 25 ppm was more than 80% in test [2]; more than 80% in test [3]; less than 80% in test [4]; less than 80% in the test on Ustilago maydis (USTIMA); less than 80% in test [7]; less than 80% in [8].
Turning to `CON=C(c1ccc(NC(=O)c2nccc(OC)c2OC(C)=O)cc1)c1cccc(C(F)(F)F)c1` [Compound 707], in test [2], the “PYRIOR in vitro Growth Inhibition” value is “+ (key: +: at least 80% growth inhibition; −: less than 80% growth inhibition)”. Besides, in test [3], the “LEPTNO in vitro Growth Inhibition” value was “− (key: +: at least 80% growth inhibition; −: less than 80% growth inhibition)”. Also, the “ERYSGT in vivo 1 Day Protectant” value with Erysiphe graminis—ERYSGT is on record as “+ +”. In addition, in test [4], the “PHYTIN in vitro Growth Inhibition” value is given as “− (key: +: at least 80% growth inhibition; −: less than 80% growth inhibition)”. In the test on Ustilago maydis (USTIMA), the “USTIMA in vitro Growth Inhibition” value is reported as “− (key: +: at least 80% growth inhibition; −: less than 80% growth inhibition)”. For the same molecule, the “RHIZSO in vitro Growth Inhibition” value in test [7] is recorded as “− (key: +: at least 80% growth inhibition; −: less than 80% growth inhibition)”. In addition, the “SEPTTR in vitro Growth Inhibition” value in test [8] is recorded as “− (key: +: at least 80% growth inhibition; −: less than 80% growth inhibition)”.
As for `COCCC(=O)Oc1c(OC)ccnc1C(=O)Nc1ccc(C(=NOC)c2cccc(C(F)(F)F)c2)cc1` [Compound 708], the “PYRIOR in vitro Growth Inhibition” value in [2] is listed as “− (key: +: at least 80% growth inhibition; −: less than 80% growth inhibition)”. Besides, the “LEPTNO in vitro Growth Inhibition” value in test [3] is “+ (key: +: at least 80% growth inhibition; −: less than 80% growth inhibition)”. Further, in the test on Erysiphe graminis—ERYSGT, the “ERYSGT in vivo 1 Day Protectant” value is “+ +”. In addition, the “PHYTIN in vitro Growth Inhibition” value in [4] was “− (key: +: at least 80% growth inhibition; −: less than 80% growth inhibition)”. Further, the “USTIMA in vitro Growth Inhibition” value with Ustilago maydis (USTIMA) is “− (key: +: at least 80% growth inhibition; −: less than 80% growth inhibition)”. In addition, the “RHIZSO in vitro Growth Inhibition” value in test [7] is reported as “− (key: +: at least 80% growth inhibition; −: less than 80% growth inhibition)”. The “SEPTTR in vitro Growth Inhibition” value in test [8] is given as “+ (key: +: at least 80% growth inhibition; −: less than 80% growth inhibition)”.

Source of the values: patent US6706740B2, “Fungicidal heterocyclic aromatic amides and their compositions, methods of use and preparation” (Dow AgroSciences LLC, priority 1999, dated 2004).
